Laboratory results taken from patent US20020091086A1, “Peptides that block viral infectivity and methods of use thereof” (priority 1999, published 2002).
Peptide text beside a SMILES is read from it.

How the values were obtained:
HIV-1 SF-2 virus = experiment: electron microscopy of HIV-1 particles from infected HUT78 cells; format: cell-based; conditions: 1 μM or 10 μM added 3, 5 or 7 days post infection; cells fixed day 14
Description: In this set of experiments, HUT78 cells were infected with HIV-1 SF-2 virus at 300TCID50 for 1 hr at 37° C. Subsequently, the infected cells were washed and pelleted 3 times, as described in Example 2. Thereafter, the cells were resuspended in RPMI culture medium supplemented with 10% FBS, antibiotics (100 u/ml) and polybrene (3.2 μg/ml). GPG-NH2 was then added into the cell cultures 3, 5 or 7 days post infection at concentration of 1 μM or 10 μM. A control sample was administered 0.5μM Ritonavir (a protease inhibitor).
The cells were cultured until day 14, at which point, the cells were fixed in 2.5% glutaraldehyde by conventional means. The fixed cells were then postfixed in 1% OSO4 and were dehydrated, embedded with epoxy resins, and the blocks were allowed to polymerize. Epon sections of virus infected cells were made approximately 60-80 nm thin in order to accommodate the width of the nucleocapsid. The sections were mounted to grids stained with 1.0% uranyl acetate and were analyzed in a Zeiss CEM 902 microscope at an accelerating voltage of 80 kV. The microscope was equipped with a spectrometer to improve image quality and a liquid nitrogen cooling trap was used to reduce beam damage. The grids having sections of control and GPG-NH2 incubated cells were examined in several blind studies.

[1] = tested on: HIV-1 isolate p7261 (low AZT); experiment: resistant HIV-1 isolates in PBMC, p24 ELISA; format: cell-based; conditions: GPG 100 μM, 14 days post infection
[2] = tested on: normal human lymphomonocytic cells (PBMC); experiment: viability of cultured monocytes and lymphocytes; format: cell-based; conditions: as high as 2 mM; exposure as long as 4 days
Description: Next, the toxicity to normal human lymphomonocytic cells (PBMC) was examined. […] The effect of GPG-NH2 on in vitro proliferative response of human mononuclear cells was also tested.

HIV-1 SF-2 virus strain = experiment: stability in human blood and plasma by HIV-1 replication assay in HUT78 cells; format: in vitro ADME; conditions: incubated 1, 2 and 4 hours at 37° C. in human blood or plasma; final 20 μM or 100 μM; p24 day 7 and 14
Description: This example describes several studies that were performed to access the stability of small peptides in human blood and plasma. Accordingly, human blood was taken freshly and treated with EDTA. Plasma was separated by centrifuging at 2,500 rpm for 20 minutes. GPG-NH2 was added into blood or plasma at concentrations of 10 mM or 50 mM followed by incubation in 37° C. for 1, 2 and 4 hours, respectively. […] After incubation in 37° C., the GPG-NH2 containing blood was centrifuged at 2,500 rpm for 20 minutes to isolate plasma. Some of the plasma samples were treated with CaCl2 at concentration of 5 mM in 37° C. for 10 minutes followed by centrifuging at 13,000 rpm for 30 minutes and the supernatant are referred to as CaCl2 treated plasma. Then all the GPG-NH2 containing plasma samples were diluted in RPMI medium to give the final concentrations 20 μM or 100 μM of GPG-NH2 (500 fold dilutions) and were then used in HIV-1 replication assays.
The replication assays were performed on HUT78 cells and the HIV-1 SF-2 virus strain was used. Briefly, approximately 200,000 cells were resuspended in the diluted GPG-amide containing medium, plasma, or plasma from blood. The GPG-NH2 containing medium, plasma, or plasma from blood was incubated with the cells for either 1 hr, 2 hr, or 4 hr at 37° C. Subsequently, SF-2 virus was added at 25 TCID50. […]

SF162 strain of HIV-1 = experiment: antiviral activity of plasma of rats fed GPG-NH2 on infected PBMC, p24; format: cell-based; conditions: rat plasma diluted 1/5
Description: For the assessment of biologically active GPG-NH2 in the plasma of animals fed the small peptide, plasma samples were prepared from blood obtained from the rats of the four week toxicology study the day after the last feeding. The plasma samples were diluted ⅕ in RPMI medium and were adminstered to PBMC infected with the SF162 strain of HIV-1, as described above. Viral infectivity was then monitored at seven, eleven, and fourteen days post infection by detecting the amount of p24 in the supernatent using a commercially available detection assay. (Abbott). […] In some cases, the administration of as little as 10 μM GPG-NH2 provided a sufficient concentration of small peptide in the plasma to enable the inhibition of HIV-1 replication. The percent reduction was calculated as in Table 6. The results from these experiments established that small peptides described herein can be maintained at concentrations in the body of an animal that are effective at inhibiting HIV replication.

[3] = Exp. 1, day 7, Feeding GPG 10 (mg/ml)
[4] = Exp. 1, day 7, Feeding GPG 30 (mg/ml)
[5] = Exp. 1, day 7, Feeding GPG 100 (mg/ml)
[6] = Exp. 1, day 14, Feeding GPG 10 (mg/ml)
[7] = Exp. 1, day 14, Feeding GPG 30 (mg/ml)
[8] = Exp. 1, day 14, Feeding GPG 100 (mg/ml)
[9] = Exp. 2, day 7, Feeding GPG 10 (mg/ml)
[10] = Exp. 2, day 7, Feeding GPG 30 (mg/ml)
[11] = Exp. 2, day 7, Feeding GPG 100 (mg/ml)
[12] = Exp. 2, day 14, Feeding GPG 10 (mg/ml)
[13] = Exp. 2, day 14, Feeding GPG 30 (mg/ml)
[14] = Exp. 2, day 14, Feeding GPG 100 (mg/ml)
[15] = Exp. 3, day 14, Feeding GPG 10 (mg/ml)
[16] = Exp. 3, day 14, Feeding GPG 30 (mg/ml)
[17] = Exp. 3, day 14, Feeding GPG 100 (mg/ml)
[18] = Exp. 3, day (number not given), Feeding GPG 10 (mg/ml)
[19] = Exp. 3, day (number not given), Feeding GPG 30 (mg/ml)
[20] = Exp. 3, day (number not given), Feeding GPG 100 (mg/ml)
[21] = Exp. 4, day 11, Feeding GPG 10 (mg/ml)
[22] = Exp. 4, day 11, Feeding GPG 30 (mg/ml)
[23] = Exp. 4, day 11, Feeding GPG 100 (mg/ml)
[24] = Exp. 5, day 7, Feeding GPG 10 (mg/ml)
[25] = Exp. 5, day 7, Feeding GPG 30 (mg/ml)
[26] = Exp. 5, day 7, Feeding GPG 100 (mg/ml)

## NCC(=O)N1CCC[C@H]1C(=O)NCC(N)=O [GPG-NH2, glycyl-prolyl-glycine amide] (H-Gly-Pro-Gly-NH2)
HIV-1 SF-2 virus
  viral nucleocapsid formation, electron microscopy: interrupted proper viral nucleocapsid formation
[1]
  % reduction: (100%)
  HIV-1 p24: <500 pg/mL
[2]
  viability of cultured monocytes and lymphocytes: did not appreciably affect the viability
HIV-1 SF-2 virus strain
  ability to inhibit HIV-1 after incubation in medium, plasma or blood: No significant difference
SF162 strain of HIV-1; [3]
  % reduction: 82.8%
  p24: 93.3 pg/mL
SF162 strain of HIV-1; [4]
  % reduction: 95.6%
  p24: 24.0 pg/mL
SF162 strain of HIV-1; [5]
  % reduction: 67.8%
  p24: 174.7 pg/mL
SF162 strain of HIV-1; [6]
  % reduction: 92.8%
  p24: 1636 pg/mL
SF162 strain of HIV-1; [7]
  % reduction: 95.9%
  p24: 938 pg/mL
SF162 strain of HIV-1; [8]
  % reduction: 59.4%
  p24: 9211 pg/mL
SF162 strain of HIV-1; [9]
  % reduction: 31.9%
  p24: 219.2 pg/mL
SF162 strain of HIV-1; [10]
  % reduction: 39.6%
  p24: 194.3 pg/mL
SF162 strain of HIV-1; [11]
  % reduction: 46.1%
  p24: 173.5 pg/mL
SF162 strain of HIV-1; [12]
  % reduction: 0%
  p24: 4760.8 pg/mL
SF162 strain of HIV-1; [13]
  % reduction: 12.3%
  p24: 3574.4 pg/mL
SF162 strain of HIV-1; [14]
  % reduction: 45.9%
  p24: 2203.7 pg/mL
SF162 strain of HIV-1; [15]
  % reduction: 11.6%
  p24: 6700.6 pg/mL
SF162 strain of HIV-1; [16]
  % reduction: 9.1%
  p24: 6893.0 pg/mL
SF162 strain of HIV-1; [17]
  % reduction: 0%
  p24: 7578.4 pg/mL
SF162 strain of HIV-1; [18]
  % reduction: 0%
  p24: 255.6 pg/mL
SF162 strain of HIV-1; [19]
  % reduction: 41.7%
  p24: 107.3 pg/mL
SF162 strain of HIV-1; [20]
  % reduction: 47.3%
  p24: 96.9 pg/mL
SF162 strain of HIV-1; [21]
  % reduction: 29.8%
  p24: 170 pg/mL
SF162 strain of HIV-1; [22]
  % reduction: 0%
  p24: 487.4 pg/mL
SF162 strain of HIV-1; [23]
  % reduction: 78.6%
  p24: 51.7 pg/mL
SF162 strain of HIV-1; [24]
  % reduction: 73.9%
  p24: 79.6 pg/mL
SF162 strain of HIV-1; [25]
  % reduction: 0%
  p24: 439.3 pg/mL
SF162 strain of HIV-1; [26]
  % reduction: 80.3%
  p24: 60 pg/mL
